Where “and” joins values, the source holds several entries; their conditions need not be identical. Identical values can stand only once.
Assay: CoQ10 Starting Material Particle Size Analysis, laser diffraction, dry dispersion
Format: physicochemical
Method: This example details the results of particle size analysis for a commercially available CoQ10 starting material. Dry samples of KANEKA Q10 powder were analyzed using laser diffraction to obtain a measurement of particle size characteristics.
Particle size analysis of the CoQ10 starting material was conducted using a dry dispersion method. A […] HELOS equipped with a RODOS dispersion module and a R3 lens was employed for the analysis. Prior to the analysis the sample was evaluated using optical microscopy. Particles were well dispersed and ranged in size from approximately 5 microns to approximately 90 microns.

[1] = dry powder, Avg. of analyses A-F
[2] = dry powder, single analyses A-F

Question: Which results are given for `COC1=C(OC)C(=O)C(C/C=C(\C)CC/C=C(\C)CC/C=C(\C)CC/C=C(\C)CC/C=C(\C)CC/C=C(\C)CC/C=C(\C)CC/C=C(\C)CC/C=C(\C)CCC=C(C)C)=C(C)C1=O` [KANEKA Q10]?
Answer: x10, Particulate Size Distribution (Number Basis) [1]: 0.55 μm; x10, Particulate Size Distribution (Volume Basis) [1]: 4.76 μm; x50, Particulate Size Distribution (Number Basis) [1]: 0.77 μm; x50, Particulate Size Distribution (Volume Basis) [1]: 15.16 μm; x90, Particulate Size Distribution (Number Basis) [1]: 1.30 μm; x90, Particulate Size Distribution (Volume Basis) [1]: 40.52 μm; x95, Particulate Size Distribution (Number Basis) [1]: 1.78 μm; x95, Particulate Size Distribution (Volume Basis) [1]: 50.83 μm; x99, Particulate Size Distribution (Number Basis) [1]: 5.11 μm; x99, Particulate Size Distribution (Volume Basis) [1]: 71.32 μm; x10, Particulate Size Distribution (Number Basis) [2]: 0.55 μm; x10, Particulate Size Distribution (Volume Basis) [2]: 4.99 μm and 5.21 μm and 4.63 μm and 4.16 μm and 4.77 μm and 4.80 μm; x50, Particulate Size Distribution (Volume Basis) [2]: 15.36 μm and 15.89 μm and 15.04 μm and 14.37 μm and 15.15 μm; x90, Particulate Size Distribution (Volume Basis) [2]: 40.65 μm and 41.41 μm and 40.36 μm and 39.46 μm and 40.75 μm and 40.46 μm; x95, Particulate Size Distribution (Number Basis) [2]: 1.79 μm and 1.74 μm and 1.77 μm and 1.80 μm and 1.78 μm; x95, Particulate Size Distribution (Volume Basis) [2]: 50.84 μm and 51.76 μm and 50.62 μm and 49.96 μm and 51.11 μm and 50.68 μm; x99, Particulate Size Distribution (Number Basis) [2]: 5.30 μm and 5.13 μm and 4.98 μm and 4.93 μm and 5.14 μm and 5.20 μm; x99, Particulate Size Distribution (Volume Basis) [2]: 71.36 μm and 71.75 μm and 71.16 μm and 70.79 μm and 71.66 μm and 71.20 μm; portion of the total volume attributable to particulates greater than 15 μm in diameter (volume basis): more than 50%
